{"source": "paper PMC10096842", "about": "“Identification of Flavone Derivative Displaying a 4′-Aminophenoxy Moiety as Potential Selective Anticancer Agent in NSCLC Tumor Cells” (Molecules, 2023)", "key": {"[1]": {"assay": "LogP determination (1-octanol/PBS partition, UV-vis)", "format": "physicochemical", "details": "1-octanol/PBS, pH 7.4, 1-octanol/PBS pH 7.4; read-out: Experimental LogP", "experimental": "LogP was determined as previously described. Briefly, solutions of each APF were prepared in 1-octanol, and UV-vis spectra were acquired to determine the λmax. After having placed 2.5 mL of each solution in 10 mL conical centrifuge tubes, PBS was added (2.5 mL, pH 7.4) and the biphasic system was mixed using a vortex mixer (VELP Scientifica, Usmate Velate MB, Italy) followed by centrifugation (2000× g, 5 min). Then, the octanol phase absorption was measured at λmax. The partition coefficient Ko/w was calculated according to the following equation:Ko/w = [APF]oct/[APF]PBS = […] where Ai is the initial measured absorbance in octanol, pre-extraction, and Af is the final measured absorbance in octanol, post-extraction."}, "H1975 NSCLC cells": {"tested_on": "H1975 NSCLC cells", "assay": "MTT cell viability assay, H1975", "format": "cell-based, human", "details": "for IC50: H1975, 72 h, MTT", "experimental": "The human non-small cell lung cancer (NSCLC) and Human Dermal Fibroblasts (HDF) cell lines were all obtained from the American Type Culture Collection (ATCC). The H1975 (CRL-5908™) cell line was grown in RPMI 1640 medium (ECB2000) while the A549 (CCL-185™) and HDF were grown in complete DMEM medium (ECM0095) All cultures were supplemented with 10% fetal bovine serum (FBS), 2 mM L-glutamine, 100 U/mL penicillin, and 100 µg/mL streptomycin,. All cell lines were routinely maintained in 75 cm^2 flasks in a cell incubator at 37 °C, 5% CO2, and 95% relative humidity. The cell cultures were detached by trypsinization with 0.5% trypsin in PBS containing 0.025% EDTA. All cell culture reagents were supplied by Euroclone (Milan, Italy).\nThe number of metabolically active cells, and thus cell viability, was assessed by a 3-(4,5-dimethylthiazol-2-yl)-2,5-diphenyltetrazolium bromide (MTT) assay as previously described. The NSCLC cell lines (A549 and H1975) and HDF were seeded in 96-well plates to reach 50% confluence at 24 h; then, the medium was removed and replaced with 0.2 mL of fresh culture medium containing increasing compound concentrations (0–160 µM). After 72 h, the medium from each well was removed and replaced with fresh medium supplemented with MTT at a final concentration of 200 µg/mL. After incubation for 4 h at 37 °C, 0.2 mL of DMSO was added to each well followed by multiwell shaking for 4 min. The absorbance was read on a multiwell scanning microplate reader (BioTek Synergy HT MicroPlate Reader Spectrophotometer, BioTek Instruments Inc., Winooski, VT, USA) at 570 nm using the extraction buffer as a blank. The optical density in the control group (untreated cells) was considered as 100% viability. The relative cell viability (%) was calculated as (OD570 of treated samples/OD570 of untreated samples) × 100. Dose-dependent curves were therefore generated for the cytotoxic studies. The 50% inhibiting concentration (IC50) was determined by non-linear regression analysis with a three-parameter fit by utilizing SigmaPlot 12.0 Software, USA, Systat Software, Inc. SigmaPlot for Windows. Each experiment was performed at least five times in triplicate."}, "[2]": {"tested_on": "p21^waf1/cip1 protein level in A549 cells", "assay": "Western blot of p21 expression, A549", "format": "cell-based, human", "details": "A549, higher APF-1 concentration (3 µM), 24 h", "experimental": "Analysis of cell extracts (20 µg total proteins) was performed using SDS-PAGE 12% (Bio-Rad Laboratories, Hercules, CA, USA). Electrophoresis was carried out under reducing conditions, where uniformly negatively charged proteins move according to their mass. The proteins were then transferred to a PVDF membrane using the Trans-Blot Turbo instrument (Bio-Rad Laboratories, USA), after which the membrane was blocked with Every Blot Blocking Buffer (Bio-Rad Laboratories, USA). P21 protein levels were analyzed by Western blotting using a specific rabbit monoclonal primary antibody that specifically recognizes p21 protein (ab109199, Cambridge, MA, USA), and a secondary antibody anti-rabbit HRP (TA130023, OriGene Technologies, Rockville, MD 20850, USA) and detected by chemiluminescence using the Chemidoc device (Bio-Rad Laboratories, USA). […] GADPH protein levels were analyzed by Western blotting using a specific rabbit monoclonal primary antibody that specifically recognizes this protein (ARC0205, catalog number MA535235, Thermo Scientific, Waltham, MA, USA) and secondary antibody anti-rabbit HRP (TA130023, OriGene Technologies, Rockville, MD 20850, USA), also in this case detected by chemiluminescence with the Chemidoc instrument (Bio-Rad Laboratories, USA)."}, "H1975 cells": {"tested_on": "H1975 cells", "assay": "Annexin V-FITC/PI apoptosis flow cytometry, H1975", "format": "cell-based, human", "experimental": "Apoptosis was analyzed by flow cytometry using an Annexin V-FITC apoptosis detection kit (Biolegend, San Diego, CA, USA), according to the manufacturer’s instructions. A549, H1975, and HDF cells were treated with […] concentrations of APF-1 (1.5 and 3 µM). […] Briefly, control and treated cells were trypsinized, washed twice with ice-cold PBS, and resuspended in 1X Annexin binding buffer at a final concentration of 1.0 × 10^6 cell/mL. A total of 5 µL Annexin V-FITC and 10 µL Propidium Iodide (PI) were added to the cell suspension and the mixture was incubated for 15 min at rt in the dark. Samples were analyzed using the Guava EasyCyte flow cytometer (Merk-Millipore, Louis Missouri, USA). A total of 5000 events were acquired for each sample. Annexin V-FITC was detected as a green fluorescence (λex = 488 nm; λem = 516 nm) and PI was detected as a red fluorescence (λex = 535 nm; λem = 617 nm). Early apoptosis is defined by Annexin V+/PI− staining, late apoptosis is defined by Annexin V+/PI+ staining, and necrosis is defined by Annexin V−/PI+ staining."}}}
{"compound": "Nc1ccc(Oc2ccc3oc(-c4cccc(Oc5ccccc5)c4)cc(=O)c3c2)cc1", "note": "[APF-1]", "values": [{"measurement": "logP", "setting": "[1]", "value": "3.2 ± 0.1"}, {"measurement": "SI increase compared with doxorubicin", "setting": "H1975 NSCLC cells; H1975", "value": "~ 4.5 fold"}, {"measurement": "IC50", "setting": "H1975 NSCLC cells", "value": "2300 ± 200", "unit": "nM"}, {"measurement": "IC50", "setting": "H1975 NSCLC cells; Homo sapiens, NCI-H1975, 72 h", "value": 2000, "unit": "nM"}, {"measurement": "increase in p21^waf1/cip1 expression with respect to untreated cells", "setting": "[2]", "value": 1.5, "unit": "fold"}, {"measurement": "early apoptotic (Annexin V+PI−) cells", "setting": "H1975 cells; H1975, 1.5 µM, 24 h", "value": 16, "unit": "%"}, {"measurement": "late apoptotic (Annexin V+PI+) cells", "setting": "H1975 cells; H1975, 1.5 µM, 24 h", "value": 11, "unit": "%"}, {"measurement": "increase of early apoptosis compared to untreated cells", "setting": "H1975 cells; H1975, 3 µM, 24 h", "value": 2.6, "unit": "fold"}, {"measurement": "increase of late apoptosis compared to untreated cells", "setting": "H1975 cells; H1975, 3 µM, 24 h", "value": 6.5, "unit": "fold"}, {"measurement": "viability at 1.5 µM", "setting": "H1975 cells; Homo sapiens, NCI-H1975, 24 h, H1975, 1.5 µM, 24 h, read-out: live/viable (Annexin V−PI−) cells", "value": 70.9, "unit": "%"}, {"measurement": "viability at 3 µM", "setting": "H1975 cells; Homo sapiens, NCI-H1975, 24 h, H1975, 3 µM, 24 h, read-out: live/viable (Annexin V−PI−) cells", "value": 46, "unit": "%"}, {"measurement": "induction of apoptosis (sum of early and late apoptosis) with respect to untreated cells", "setting": "H1975 cells; cancer cells (H1975), Figure 3D", "value": "about 4 times"}]}
